Drawing on US20250236608A1, “EGFR INHIBITORS” (Blueprint Medicines Corporation, priority 2022, published 2025), this text covers IC50 for 21 compounds.

Experiment [1] has as its target pEGFR (Tyr1068) in PC-9 cells (Ex19Del) (Homo sapiens (Human), UniProt P00533, DEL746-750). As to the kind of experiment: PC-9 pEGFR AlphaLISA assay. In kind it is cell-based. The conditions noted are these: 4 hours incubation, p-EGFR (Tyr1068) AlphaLISA, read-out: Ext pEGFR_PC-9 Ex19Del IC50. In short, it runs like this:
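Compounds are added in ten 4-fold dilutions to adherent cells grown in serum-containing (10% FBS) phenol-free DMEM and left for 4 hours at 37° C. Phosphorylated receptor in lysates is quantified by bead-based AlphaLISA. IC50 values derive from inhibition plotted against log dose.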

For another experiment, the target named is EGFR (d746-750) (Homo sapiens (Human), UniProt P00533, DEL746-750). As to the kind of experiment: Biochemical EGFR inhibition assay, EGFR (d746-750). The conditions noted are these: Caliper mobility shift; 1.0 mM ATP or ATP Km; read-out: Enz EGFR_Exon19-del746-750 IC50.
A further experiment addresses EGFR L858R (Homo sapiens (Human), UniProt P00533, L858R). As to the kind of experiment: Biochemical EGFR inhibition assay, EGFR L858R. The conditions noted are these: Caliper mobility shift; 1.0 mM ATP or ATP Km; read-out: Enz EGFR_L858R IC50.

Chain of pEGFR (Tyr1068) in PC-9 cells (Ex19Del) (P00533 other isoform, or with tags, fused parts or gaps del 746-750): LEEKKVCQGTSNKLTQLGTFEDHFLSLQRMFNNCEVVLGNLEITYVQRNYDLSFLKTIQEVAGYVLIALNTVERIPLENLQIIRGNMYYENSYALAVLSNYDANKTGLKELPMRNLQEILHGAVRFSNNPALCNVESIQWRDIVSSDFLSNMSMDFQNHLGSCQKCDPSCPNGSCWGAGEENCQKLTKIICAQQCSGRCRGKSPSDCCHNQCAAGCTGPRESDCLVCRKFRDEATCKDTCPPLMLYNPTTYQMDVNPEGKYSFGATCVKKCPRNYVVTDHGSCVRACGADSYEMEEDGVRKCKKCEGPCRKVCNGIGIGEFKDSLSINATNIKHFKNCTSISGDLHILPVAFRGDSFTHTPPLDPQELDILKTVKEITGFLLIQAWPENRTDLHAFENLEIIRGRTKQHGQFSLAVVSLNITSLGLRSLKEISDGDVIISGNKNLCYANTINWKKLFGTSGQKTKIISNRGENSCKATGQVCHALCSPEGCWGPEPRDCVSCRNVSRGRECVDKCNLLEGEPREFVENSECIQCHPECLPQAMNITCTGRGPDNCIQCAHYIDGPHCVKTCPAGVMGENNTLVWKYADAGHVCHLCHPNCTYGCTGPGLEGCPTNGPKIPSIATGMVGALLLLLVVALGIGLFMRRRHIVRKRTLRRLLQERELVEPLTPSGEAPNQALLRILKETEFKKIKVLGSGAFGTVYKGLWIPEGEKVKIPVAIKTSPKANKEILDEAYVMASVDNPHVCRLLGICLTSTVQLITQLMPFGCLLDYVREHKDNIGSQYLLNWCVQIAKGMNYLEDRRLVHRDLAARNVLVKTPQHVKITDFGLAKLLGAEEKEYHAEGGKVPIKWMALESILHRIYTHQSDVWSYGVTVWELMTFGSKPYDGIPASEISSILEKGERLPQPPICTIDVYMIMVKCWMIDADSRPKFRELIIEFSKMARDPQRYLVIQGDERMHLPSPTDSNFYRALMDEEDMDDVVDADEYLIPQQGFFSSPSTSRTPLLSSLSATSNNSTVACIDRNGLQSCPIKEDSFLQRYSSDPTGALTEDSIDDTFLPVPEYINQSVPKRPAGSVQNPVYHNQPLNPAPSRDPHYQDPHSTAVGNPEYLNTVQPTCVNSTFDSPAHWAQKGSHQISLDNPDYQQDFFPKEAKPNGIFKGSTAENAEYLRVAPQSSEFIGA
Chain of EGFR (d746-750) (P00533 other isoform, or with tags, fused parts or gaps del 1-694/del 746-750 limits assumed): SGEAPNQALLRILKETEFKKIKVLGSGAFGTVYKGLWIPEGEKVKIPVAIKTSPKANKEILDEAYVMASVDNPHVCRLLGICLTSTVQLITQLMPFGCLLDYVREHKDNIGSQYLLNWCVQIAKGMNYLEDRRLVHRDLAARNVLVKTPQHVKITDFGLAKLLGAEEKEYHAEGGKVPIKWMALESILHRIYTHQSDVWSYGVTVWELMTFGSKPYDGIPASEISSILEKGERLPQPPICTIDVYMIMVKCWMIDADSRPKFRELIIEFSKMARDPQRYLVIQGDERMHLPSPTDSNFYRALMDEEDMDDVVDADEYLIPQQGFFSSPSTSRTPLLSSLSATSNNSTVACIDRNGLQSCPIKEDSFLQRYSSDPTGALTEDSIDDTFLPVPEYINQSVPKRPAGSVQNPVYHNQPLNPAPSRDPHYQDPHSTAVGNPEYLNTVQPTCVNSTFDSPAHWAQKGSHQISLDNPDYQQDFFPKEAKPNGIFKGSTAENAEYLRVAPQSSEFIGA
Chain of EGFR L858R (P00533 25-1210 L858R): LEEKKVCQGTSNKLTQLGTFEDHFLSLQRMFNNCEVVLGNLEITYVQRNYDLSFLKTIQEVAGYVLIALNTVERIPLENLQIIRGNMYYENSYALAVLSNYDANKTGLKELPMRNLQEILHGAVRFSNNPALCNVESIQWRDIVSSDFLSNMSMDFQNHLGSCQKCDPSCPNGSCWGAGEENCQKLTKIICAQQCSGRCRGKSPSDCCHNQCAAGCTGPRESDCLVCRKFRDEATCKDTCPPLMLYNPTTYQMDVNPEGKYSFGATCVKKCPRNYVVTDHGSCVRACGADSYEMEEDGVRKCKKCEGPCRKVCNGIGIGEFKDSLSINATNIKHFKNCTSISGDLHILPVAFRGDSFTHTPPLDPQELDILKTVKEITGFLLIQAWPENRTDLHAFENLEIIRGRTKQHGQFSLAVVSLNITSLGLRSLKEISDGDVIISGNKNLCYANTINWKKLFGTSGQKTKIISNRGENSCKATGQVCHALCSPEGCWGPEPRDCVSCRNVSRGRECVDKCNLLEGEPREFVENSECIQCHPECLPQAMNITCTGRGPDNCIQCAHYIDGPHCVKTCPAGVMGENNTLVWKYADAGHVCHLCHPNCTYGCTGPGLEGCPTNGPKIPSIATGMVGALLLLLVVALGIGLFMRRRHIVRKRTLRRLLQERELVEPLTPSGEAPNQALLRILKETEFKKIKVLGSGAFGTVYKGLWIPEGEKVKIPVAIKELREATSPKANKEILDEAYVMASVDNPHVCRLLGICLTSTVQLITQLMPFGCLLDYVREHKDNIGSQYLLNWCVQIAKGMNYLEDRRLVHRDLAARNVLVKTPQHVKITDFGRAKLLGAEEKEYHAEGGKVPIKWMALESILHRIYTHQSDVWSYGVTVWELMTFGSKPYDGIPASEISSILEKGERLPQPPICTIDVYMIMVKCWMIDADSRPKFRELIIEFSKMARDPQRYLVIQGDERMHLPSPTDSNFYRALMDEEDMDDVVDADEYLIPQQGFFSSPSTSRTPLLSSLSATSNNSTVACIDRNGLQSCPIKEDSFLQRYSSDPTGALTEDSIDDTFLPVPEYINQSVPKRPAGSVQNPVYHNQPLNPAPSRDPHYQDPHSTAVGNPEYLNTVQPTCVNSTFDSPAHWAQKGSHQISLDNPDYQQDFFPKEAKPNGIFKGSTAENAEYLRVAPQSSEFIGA

Turning to `CCOc1cc2ncnc(-c3cn(C)nc3-c3ccccc3)c2nc1NC(=O)C12CC(N(C)C)(C1)C2` [Example 420, 3-(dimethylamino)-N-(7-ethoxy-4-(1-methyl-3-phenyl-1H-pyrazol-4-yl)pyrido[3,2-d]pyrimidin-6-yl)bicyclo[1.1.1]pentane-1-carboxamide], the IC50 in experiment [1] is 5.9 nM; on EGFR (d746-750) it was 1.7 nM; on EGFR L858R, 30.4 nM.

Turning to `CCn1cc(-c2ncnc3cc(OC(F)F)c(NC(=O)C4CC4)cc23)c(-c2ccccc2)n1` [Example 302, N-(7-(difluoromethoxy)-4-(1-ethyl-3-phenyl-1H-pyrazol-4-yl)quinazolin-6-yl)cyclopropanecarboxamide], the IC50 in experiment [1] came out at 1.6 nM; at EGFR (d746-750), 0.7 nM; at EGFR L858R, 1.4 nM.

As to `COc1cc2ncnc(-c3cn(CC(F)F)nc3-c3ccccc3)c2cc1OCCCN1CCOCC1` [Example 23, 4-(3-((4-(1-(2,2-difluoroethyl)-3-phenyl-1H-pyrazol-4-yl)-7-methoxyquinazolin-6-yl)oxy)propyl)morpholine], the IC50 in experiment [1] was 0.8 nM; at EGFR (d746-750), 0.9 nM; at EGFR L858R, 1.9 nM.

`COc1cc2ncnc(-c3cn(C)nc3-c3ccccc3)c2cc1NC(=O)c1ccnn1C(F)(F)F` [Example 204, N-(7-methoxy-4-(1-methyl-3-phenyl-1H-pyrazol-4-yl)quinazolin-6-yl)-1-(trifluoromethyl)-1H-pyrazole-5-carboxamide]: the IC50 came out at 1.4 nM in experiment [1], 1.3 nM on EGFR (d746-750) and 2.1 nM at EGFR L858R.

Consider `CCn1cc(-c2ncnc3cc(OC)c(NC(=O)c4cnn(CCN(C)C)c4)nc23)c(-c2ccccc2)n1` [Example 319, 1-(2-(dimethylamino)ethyl)-N-(4-(1-ethyl-3-phenyl-1H-pyrazol-4-yl)-7-methoxypyrido[3,2-d]pyrimidin-6-yl)-1H-pyrazole-4-carboxamide], for which the IC50 was determined as 0.4 nM in experiment [1], 0.7 nM on EGFR (d746-750) and 1.1 nM at EGFR L858R.

`CCn1cc(-c2ncnc3cc(OC)c(NC(=O)[C@]45COC[C@H]4C5)cc23)c(-c2ccccc2F)n1` (mixture of isomers) [Example 263, (1S,5S)—N-(4-(1-ethyl-3-(2-fluorophenyl)-1H-pyrazol-4-yl)-7-methoxyquinazolin-6-yl)-3-oxabicyclo[3.1.0]hexane-1-carboxamide and (1R,5R)—N-(4-(1-ethyl-3-(2-fluorophenyl)-1H-pyrazol-4-yl)-7-methoxyquinazolin-6-yl)-3-oxabicyclo[3.1.0]hexane-1-carboxamide]: the IC50 in experiment [1] was 2.7 nM; at EGFR (d746-750), 0.7 nM; at EGFR L858R it was 1.7 nM.

As for `CCn1cc(-c2ncnc3cc(OC)c(NC(=O)[C@]45COC[C@H]4C5)nc23)c(-c2ccccc2)n1` (single isomer, unassigned) [Example 388, (1S,5S)—N-(4-(1-ethyl-3-phenyl-1H-pyrazol-4-yl)-7-methoxypyrido[3,2-d]pyrimidin-6-yl)-3-oxabicyclo[3.1.0]hexane-1-carboxamide or (1R,5R)—N-(4-(1-ethyl-3-phenyl-1H-pyrazol-4-yl)-7-methoxypyrido[3,2-d]pyrimidin-6-yl)-3-oxabicyclo[3.1.0]hexane-1-carboxamide], the IC50 in experiment [1] worked out at 0.4 nM; on EGFR (d746-750), 0.5 nM; at EGFR L858R, 4.8 nM.

Take `COc1cc2ncnc(-c3cn(C)nc3-c3ccccc3)c2cc1C1=CCN(C)C1` [Example 131, 7-methoxy-6-(1-methyl-2,5-dihydro-1H-pyrrol-3-yl)-4-(1-methyl-3-phenyl-1H-pyrazol-4-yl)quinazoline]: the half-maximal inhibitory concentration (IC50) stood at 3.3 nM in experiment [1], 1.9 nM at EGFR (d746-750) and 1.6 nM at EGFR L858R.

In the case of `COc1cc2ncnc(-c3cn(C)nc3-c3ccccc3)c2cc1NC(=O)c1ccnn1C(C)C` [Example 218, 1-isopropyl-N-(7-methoxy-4-(1-methyl-3-phenyl-1H-pyrazol-4-yl)quinazolin-6-yl)-1H-pyrazole-5-carboxamide], the IC50 came to 2.7 nM in experiment [1], 1 nM on EGFR (d746-750) and 2.1 nM on EGFR L858R.

Turning to `COc1cc2ncnc(-c3cn(C)nc3-c3ccccc3)c2cc1O[C@@H]1CN(C)C[C@H]1F` [Example 7, 6-(((3R,4R)-4-fluoro-1-methylpyrrolidin-3-yl)oxy)-7-methoxy-4-(1-methyl-3-phenyl-1H-pyrazol-4-yl)quinazoline], the figures for the IC50 (in experiment [1]; at EGFR (d746-750); on EGFR L858R) were 5.5 nM, 1.6 nM and 3.2 nM, respectively.

Regarding `CC(C)Oc1cc2ncnc(-c3cn(C)nc3-c3ccccc3)c2cc1OC(C)C` [Example 26, 6,7-diisopropoxy-4-(1-methyl-3-phenyl-1H-pyrazol-4-yl)quinazoline], the half-maximal inhibitory concentration (IC50) in experiment [1] came out at 8 nM; at EGFR (d746-750), 1.6 nM; at EGFR L858R it was 2.9 nM.

On to `CCOc1cc2ncnc(-c3cn(C)nc3-c3ccccc3)c2nc1NC1CCOCC1` [Example 158, 7-ethoxy-4-(1-methyl-3-phenyl-1H-pyrazol-4-yl)-N-(tetrahydro-2H-pyran-4-yl)pyrido[3,2-d]pyrimidin-6-amine], for which the values for the IC50 (in experiment [1]; on EGFR (d746-750); on EGFR L858R) were 0.2 nM, 1.4 nM and 1.7 nM, respectively.

As for `COc1cc2ncnc(-c3cn(C)nc3-c3ccccc3)c2cc1NC(=O)N1CCO[C@@H](C)[C@@H]1C` [Example 177, (2S,3S)—N-(7-methoxy-4-(1-methyl-3-phenyl-1H-pyrazol-4-yl)quinazolin-6-yl)-2,3-dimethylmorpholine-4-carboxamide], the values for the half-maximal inhibitory concentration (IC50) (in experiment [1]; at EGFR (d746-750); at EGFR L858R) were 6.1 nM, 2.1 nM and 4.3 nM, respectively.

As to `COc1cc2ncnc(-c3cn(C)nc3-c3ccccc3)c2cc1NC(=O)c1cncc(F)c1` [Example 327, 5-fluoro-N-(7-methoxy-4-(1-methyl-3-phenyl-1H-pyrazol-4-yl)quinazolin-6-yl)nicotinamide], the results for the IC50 (in experiment [1]; on EGFR (d746-750); on EGFR L858R) were 10.4 nM, 5.1 nM and 10.4 nM, respectively.

`CCOc1cc2ncnc(-c3cn(C)nc3-c3ccccc3)c2cc1N1CCOCC1=O` [Example 267, 4-(7-ethoxy-4-(1-methyl-3-phenyl-1H-pyrazol-4-yl)quinazolin-6-yl)morpholin-3-one]: the 50% inhibitory concentration (IC50) turned out to be 12.1 nM in experiment [1], 9.8 nM on EGFR (d746-750) and 109 nM at EGFR L858R.

`COc1cc2ncnc(-c3cn(C)nc3-c3ccccc3F)c2nc1NC(=O)C1(C(F)(F)F)CC1` [Example 317, N-(4-(3-(2-fluorophenyl)-1-methyl-1H-pyrazol-4-yl)-7-methoxypyrido[3,2-d]pyrimidin-6-yl)-1-(trifluoromethyl)cyclopropane-1-carboxamide]: the figures for the IC50 (in experiment [1]; at EGFR (d746-750); on EGFR L858R) were 1.5 nM, 1.2 nM and 2.7 nM, respectively.

With `COc1cc2ncnc(-c3cn(C)nc3-c3ccc(F)cc3)c2nc1NC(=O)[C@]12CN(C)C[C@H]1C2(F)F` (single isomer, unassigned) [Example 425, (1R,5S)-6,6-difluoro-N-(4-(3-(4-fluorophenyl)-1-methyl-1H-pyrazol-4-yl)-7-methoxypyrido[3,2-d]pyrimidin-6-yl)-3-methyl-3-azabicyclo[3.1.0]hexane-1-carboxamide or (1S,5R)-6,6-difluoro-N-(4-(3-(4-fluorophenyl)-1-methyl-1H-pyrazol-4-yl)-7-methoxypyrido[3,2-d]pyrimidin-6-yl)-3-methyl-3-azabicyclo[3.1.0]hexane-1-carboxamide], the IC50 in experiment [1] came to 0.8 nM; at EGFR (d746-750), 1 nM; at EGFR L858R, 2.8 nM.

On to `COc1cc2ncnc(-c3cn(C)nc3-c3ccccc3)c2nc1O[C@@H](C)c1nnc(C)s1` (single isomer, unassigned) [Example 51, (S)-2-(1-((7-methoxy-4-(1-methyl-3-phenyl-1H-pyrazol-4-yl)pyrido[3,2-d]pyrimidin-6-yl)oxy)ethyl)-5-methyl-1,3,4-thiadiazole or (R)-2-(1-((7-methoxy-4-(1-methyl-3-phenyl-1H-pyrazol-4-yl)pyrido[3,2-d]pyrimidin-6-yl)oxy)ethyl)-5-methyl-1,3,4-thiadiazole], for which the IC50 in experiment [1] came out at 30.6 nM; at EGFR (d746-750) it was 5.3 nM; on EGFR L858R, 6.9 nM.

With `COc1cc2ncnc(-c3cn(C)nc3-c3ccccc3)c2nc1OC(C)c1cn(C)nn1` (stereo not drawn) [Example 34, 7-methoxy-6-(1-(1-methyl-1H-1,2,3-triazol-4-yl)ethoxy)-4-(1-methyl-3-phenyl-1H-pyrazol-4-yl)pyrido[3,2-d]pyrimidine], the values for the IC50 (in experiment [1]; on EGFR (d746-750); at EGFR L858R) were 2.5 nM, 1.6 nM and 6.1 nM, respectively.

Consider `CCOc1cc2ncnc(-c3cn(C)nc3-c3ccccc3)c2cc1[C@H](C)O` (single isomer, unassigned) [Example 103, (S)-1-(7-ethoxy-4-(1-methyl-3-phenyl-1H-pyrazol-4-yl)quinazolin-6-yl)ethan-1-ol or (R)-1-(7-ethoxy-4-(1-methyl-3-phenyl-1H-pyrazol-4-yl)quinazolin-6-yl)ethan-1-ol], for which the concentration for half-maximal inhibition (IC50) in experiment [1] stood at 2.7 nM; at EGFR (d746-750), 0.6 nM; at EGFR L858R, 1.7 nM.

Regarding `COc1cc2ncnc(-c3cn(C)nc3-c3ccccc3)c2nc1NC(=O)c1cnc(C2CC2)s1` [Example 318, 2-cyclopropyl-N-(7-methoxy-4-(1-methyl-3-phenyl-1H-pyrazol-4-yl)pyrido[3,2-d]pyrimidin-6-yl)thiazole-5-carboxamide], the half-maximal inhibitory concentration (IC50) in experiment [1] was found to be 0.7 nM; at EGFR (d746-750) it was 0.4 nM; on EGFR L858R, 0.7 nM.
